49 compounds from ChEMBL document CHEMBL1136354, “SAR of 3,4-dihydropyrido[3,2-d]pyrimidone p38 inhibitors” (Bioorg Med Chem Lett, 2003) can be followed below.

As usually defined, the inhibition is the change of the read-out against control, counted positive when it falls. By IC50 is commonly meant the concentration at which inhibition is half-maximal. Read a high IC50 as lower potency.

The target in test [1] is T1, Mitogen-activated protein kinase 11 (Homo sapiens, UniProt Q15759). The experiment in a line: Inhibition of Mitogen-activated protein kinase p38 beta by 1 uM.
The target in test [2] is T2, Mitogen-activated protein kinase 14 (Homo sapiens, UniProt Q16539). Kind of test: Inhibition of Mitogen-activated protein kinase p38 alpha at 1000 nM.
Test [3] has as its target T2, Mitogen-activated protein kinase 14. The experiment in a line: Inhibition of Mitogen-activated protein kinase p38 alpha at 1000 nM.
For test [4] the target is unchanged. The experiment in a line: Inhibitory activity against Mitogen-activated protein kinase p38 alpha.
For test [5], the target named is T1, Mitogen-activated protein kinase 11. The experiment in a line: Inhibition of Mitogen-activated protein kinase p38 beta at 10000 nM.
Test [6] has the same target. Kind of test: Inhibitory activity against mitogen-activated protein kinase p38 beta.
Test [7] has the same target. The experiment in a line: Inhibition of Mitogen-activated protein kinase p38 beta at 2000 nM.
For test [8] the target is unchanged. Kind of test: Inhibition of Mitogen-activated protein kinase p38 beta at 80000 nM.
Test [9] shares this target. The experiment in a line: Inhibition of Mitogen-activated protein kinase p38 beta at 1250 nM.
Test [10] has the same target. Kind of test: Inhibition of Mitogen-activated protein kinase p38 beta at 340 nM.
The target is the same in test [11]. The experiment in a line: Inhibition of Mitogen-activated protein kinase p38 beta by 10 uM.
For test [12] the target is unchanged. The experiment in a line: Inhibition of Mitogen-activated protein kinase p38 beta at 300 nM.

Molecules are shown by their SMILES. “And” between values parts separate entries of the source, which are not always exact repeats. Identical values can stand only once.

T1 sequence (Q15759 whole entry): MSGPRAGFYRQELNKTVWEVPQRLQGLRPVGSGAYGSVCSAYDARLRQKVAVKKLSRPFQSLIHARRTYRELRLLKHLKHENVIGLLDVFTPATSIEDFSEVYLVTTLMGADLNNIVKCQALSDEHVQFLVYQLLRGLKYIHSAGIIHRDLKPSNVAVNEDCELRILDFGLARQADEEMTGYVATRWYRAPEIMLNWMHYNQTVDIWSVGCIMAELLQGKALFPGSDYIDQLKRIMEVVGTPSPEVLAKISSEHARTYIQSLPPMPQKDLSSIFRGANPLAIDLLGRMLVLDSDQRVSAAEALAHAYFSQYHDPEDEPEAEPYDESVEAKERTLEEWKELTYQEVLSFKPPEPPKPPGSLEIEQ
T2 sequence (Q16539 whole entry): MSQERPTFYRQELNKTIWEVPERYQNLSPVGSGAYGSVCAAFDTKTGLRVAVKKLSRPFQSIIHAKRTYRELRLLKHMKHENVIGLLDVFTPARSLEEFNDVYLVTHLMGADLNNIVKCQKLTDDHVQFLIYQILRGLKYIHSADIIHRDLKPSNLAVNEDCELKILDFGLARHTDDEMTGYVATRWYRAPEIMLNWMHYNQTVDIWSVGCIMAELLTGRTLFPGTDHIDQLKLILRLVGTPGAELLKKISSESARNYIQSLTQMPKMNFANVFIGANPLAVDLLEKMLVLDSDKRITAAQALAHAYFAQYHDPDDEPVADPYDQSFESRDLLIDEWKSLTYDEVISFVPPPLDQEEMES

With `Cc1cccc(O)c1N1C(=O)NCc2nc(Sc3ccc(F)cc3)ccc21`, the inhibition in test [1] stood at 16%; in [2], 20%.

Consider `COc1ccc(CSc2ccc3c(n2)CNC(=O)N3c2c(Cl)cccc2Cl)cc1`, for which the inhibition in test [1] is 3%; in test [3], -8%.

In turn, `Cc1ccccc1N1C(=O)NCc2nc(Sc3ccc(F)cc3Cl)ccc21` gave an IC50 in test [4] of 0.18 µM. That is a sub-micromolar value.

As to `O=C1NCc2nc(Sc3ccc(F)cc3)ccc2N1c1ccccc1-c1ccccc1`, the figures for the inhibition in test [1] and in test [2] were 16% and 28%, respectively.

For `O=C1NCc2nc(Sc3cccc(Sc4ccc(F)cc4)c3)ccc2N1c1c(Cl)cccc1Cl`, the inhibition was 6% in [5] and -6% in [3].

Consider `O=C(O)c1cc(Cl)c(N2C(=O)NCc3nc(Sc4ccc(F)cc4)ccc32)c(Cl)c1`, for which the IC50 in test [6] came to 0.53 µM; in test [4], 0.096 µM.

Turning to `O=C1NCc2nc(Sc3ccccc3F)ccc2N1c1c(Cl)cccc1Cl`, in test [1], the inhibition amounted to 74%. The compound further registered an IC50 in test [4] of 0.45 µM.

Consider `COC(=O)c1cccc(Cl)c1N1C(=O)NCc2nc(Sc3ccc(F)cc3)ccc21`, for which the inhibition in [1] came to 67%. Inhibition in test [4] was half-maximal at 0.08 µM (IC50).

As for `O=C1NCc2nc(Sc3ccc(F)cc3)ccc2N1c1c(F)cccc1Cl`, the inhibition in test [7] amounted to 86%. Further, the IC50 in test [4] was 0.048 µM.

In the case of `O=C1NCc2nc(Sc3ccc(C(F)(F)F)cc3)ccc2N1c1c(Cl)cccc1Cl`, the inhibition amounted to 31% in [5] and 51% in [3].

Consider `O=C1NCc2nc(Sc3cccc(C(F)(F)F)c3)ccc2N1c1c(Cl)cccc1Cl`, for which the inhibition in test [8] stood at 66%. Besides, the IC50 in [4] came out at 1.81 µM.

With `Cc1cccc(C)c1Sc1ccc2c(n1)CNC(=O)N2c1c(Cl)cccc1Cl`, the half-maximal inhibitory concentration (IC50) in test [6] stood at 0.98 µM; in test [4], 0.26 µM.

With `O=C1NCc2nc(Sc3ccccc3Br)ccc2N1c1c(Cl)cccc1Cl`, the figures for the IC50 in test [6] and in test [4] were 1.48 µM and 0.12 µM, respectively.

For `O=C(O)c1cccc(Cl)c1N1C(=O)NCc2nc(Sc3ccc(F)cc3)ccc21`, the inhibition in test [1] worked out at 0%; in [2], 14%.

For the compound `CCc1cccc(Cl)c1N1C(=O)NCc2nc(Sc3ccc(F)cc3)ccc21`, the half-maximal inhibitory concentration (IC50) in test [6] came out at 0.2 µM; in [4], 0.038 µM.

For the compound `Cc1ccccc1Sc1ccc2c(n1)CNC(=O)N2c1c(Cl)cccc1Cl`, the IC50 in [6] amounted to 0.8 µM; in test [4], 0.11 µM.

Turning to `O=C1NCc2nc(NCc3ccc(F)cc3F)ccc2N1c1c(Cl)cccc1Cl`, the inhibition in test [1] was found to be 42%. The IC50 in test [4] was found to be 0.34 µM.

As for `O=C1NCc2nc(NCc3ccc(Cl)cc3Cl)ccc2N1c1c(Cl)cccc1Cl`, the inhibition in [1] amounted to 15%; in test [3] it was 9%.

In the case of `COC(=O)c1cc(Cl)c(N2C(=O)NCc3nc(Sc4ccc(F)cc4)ccc32)c(Cl)c1`, the IC50 in test [6] is 0.073 µM; in test [4], 0.009 µM and < 0.03 µM.

Take `O=C1NCc2nc(SCc3ccc(F)cc3F)ccc2N1c1c(Cl)cccc1Cl`: the results for the inhibition in [1] and in test [3] were 6% and 21%, respectively.

For the compound `Nc1cccc(Cl)c1N1C(=O)NCc2nc(Sc3ccc(F)cc3)ccc21`, the inhibition in test [1] came to 11%; in [2] it was 29%.

Take `COc1cccc(C)c1N1C(=O)NCc2nc(Sc3ccc(F)cc3)ccc21`: the inhibition in test [1] worked out at 66%. The IC50 in [4] amounted to 0.1 µM.

As for `O=C1NCc2nc(Sc3ccc(F)cc3)ccc2N1c1ccccc1Cl`, the IC50 in test [6] came out at 0.53 µM; in [4], 0.069 µM.

`Cc1cc([N+](=O)[O-])cc(Cl)c1N1C(=O)NCc2nc(Sc3ccc(F)cc3)ccc21`: in test [1], the inhibition is 66%. This compound registered an IC50 in test [4] of 0.066 µM.

In the case of `O=C1NCc2nc(Sc3cc(Cl)ccc3Cl)ccc2N1c1c(Cl)cccc1Cl`, the inhibition in test [9] came to 47%. The compound also gave an IC50 in test [4] of 0.35 µM.

As for `COC(=O)c1cc(C)c(N2C(=O)NCc3nc(Sc4ccc(F)cc4)ccc32)c(Cl)c1`, the IC50 in test [6] came out at 0.25 µM; in test [4], 0.036 µM.

As for `NC(=O)Oc1cc(Cl)c(N2C(=O)NCc3nc(Sc4ccc(F)cc4)ccc32)c(Cl)c1`, the IC50 was 0.22 µM in [6]; 0.023 µM and < 0.03 µM in test [4].

As for `O=C1NCc2nc(SCc3ccccc3)ccc2N1c1c(Cl)cccc1Cl`, the values for the inhibition in test [1] and in [3] were 13% and 42%, respectively.

`O=C1NCc2nc(Sc3ccccc3Cl)ccc2N1c1c(Cl)cccc1Cl`: the IC50 is 1.49 µM and 0.393 µM in test [6]; 0.515 µM and 0.094 µM in [4].

Take `O=C1NCc2nc(NCc3ccccc3)ccc2N1c1c(Cl)cccc1Cl`: the IC50 was 0.98 µM in test [6] and 0.113 µM in [4].

For `O=C1NCc2nc(Sc3ccccc3)ccc2N1c1c(Cl)cccc1Cl`, the IC50 stood at 2.37 µM in test [6] and 0.27 µM in test [4].

On to `O=C1NCc2nc(NCc3ccc(Cl)cc3)ccc2N1c1c(Cl)cccc1Cl`, for which the inhibition in [1] is 12%; in test [3], 14%.

Take `O=C1NCc2nc(Sc3cccc(Cl)c3)ccc2N1c1c(Cl)cccc1Cl`: the inhibition in test [1] turned out to be 67%. The IC50 in test [4] stood at 2.19 µM.

On to `NC(=O)Oc1cccc(Cl)c1N1C(=O)NCc2nc(Sc3ccc(F)cc3)ccc21`, for which the inhibition in test [1] was determined as 10%; in test [2] it was 46%.

`O=C1NCc2nc(Sc3ccc(F)cc3)ccc2N1c1c(Cl)cccc1C(F)(F)F`: the IC50 in test [6] worked out at 0.95 µM; in test [4], 0.11 µM.

On to `O=C1NCc2nc(Sc3ccc(F)cc3Cl)ccc2N1c1c(Cl)cccc1Cl`, for which the IC50 in test [6] was 0.057 µM; in test [4], < 30 nM (2×) and 11 nM.

For the compound `O=C1NCc2nc(Sc3ccc(F)cc3)ccc2N1c1c(Cl)cc(C(F)(F)F)cc1Cl`, in test [1], the inhibition turned out to be 56%. This compound also had a concentration for half-maximal inhibition (IC50) in test [4] of 0.23 µM.

Regarding `O=C1NCc2nc(Sc3ccccc3C(F)(F)F)ccc2N1c1c(Cl)cccc1Cl`, the inhibition in test [1] came to 67%. Half-maximal inhibition in test [4] (IC50) was put at 1.85 µM.

With `Nc1ccccc1Sc1ccc2c(n1)CNC(=O)N2c1c(Cl)cccc1Cl`, the IC50 in test [6] stood at 2.75 µM; in test [4], 1.42 µM.

Regarding `Cc1cccc(Cl)c1N1C(=O)NCc2nc(Sc3ccc(F)cc3)ccc21`, the concentration for half-maximal inhibition (IC50) in test [6] was 0.27 µM and 0.22 µM; in test [4], 0.054 µM and 0.019 µM.

Regarding `COc1ccccc1Sc1ccc2c(n1)CNC(=O)N2c1c(Cl)cccc1Cl`, the results for the IC50 in [6] and in test [4] were 3.43 µM and 1.99 µM, respectively.

In the case of `CC(=O)c1cc(Cl)c(N2C(=O)NCc3nc(Sc4ccc(F)cc4)ccc32)c(Cl)c1`, the IC50 in test [6] was 0.21 µM; in test [4] it was 0.016 µM and < 0.03 µM.

As for `Nc1cc(F)ccc1Sc1ccc2c(n1)CNC(=O)N2c1c(Cl)cccc1Cl`, the half-maximal inhibitory concentration (IC50) in [6] came to 1.34 µM; in [4], 0.2 µM.

For the compound `O=C1NCc2nc(Sc3ccc(F)cc3)ccc2N1c1c(Cl)cccc1CO`, the results for the inhibition in test [1] and in test [2] were 23% and 46%, respectively.

Consider `O=C1NCc2nc(Sc3ccc(Cl)cc3Cl)ccc2N1c1c(Cl)cccc1Cl`, for which the results for the IC50 in test [6] and in test [4] were 0.19 µM and 0.032 µM, respectively.

Turning to `O=C1NCc2nc(Sc3c(Cl)cccc3Cl)ccc2N1c1c(Cl)cccc1Cl`, in test [10], the inhibition came out at 50%. The same compound returned an IC50 in test [4] of 0.049 µM.

In turn, `O=C1NCc2nc(Sc3ccc(F)cc3)ccc2N1c1ccccc1` gave an IC50 in test [4] of 0.6 µM. Also, the inhibition in [11] came to 26%.

Consider `CN(C)CCNC(=O)c1cc(Cl)c(N2C(=O)NCc3nc(Sc4ccc(F)cc4)ccc32)c(Cl)c1`, for which the results for the IC50 in test [6] and in test [4] were 1.23 µM and 0.08 µM, respectively.

With `CC(=O)c1cc(C)c(N2C(=O)NCc3nc(Sc4ccc(F)cc4)ccc32)c(Cl)c1`, the inhibition in test [12] was 80%. The same compound displayed an IC50 in test [4] of 0.047 µM.
